Experimental data reported in patent publication US9650616B2, “Methods for increasing grain yield” (University of Florida Research Foundation, Inc., priority 2014, dated 2017).

Tests used:
[1] = test system: maize endosperm AGPase, wild type; conditions: Maize wt, presence of 3-PGA, ATP varied, Pi inhibition, P-MT; read-out: Km (ATP); cited from earlier work
[2] = molecular target: T1, maize endosperm AGPase, large subunit variant D161G (numbering of SEQ ID NO: 20) (Zea mays, UniProt P55241+Q84PF5, D161G); test: Apparent kinetic constants with 3-PGA, 37° C., D161G; type: biochemical
T1 sequence (P55241 46-516 D161G): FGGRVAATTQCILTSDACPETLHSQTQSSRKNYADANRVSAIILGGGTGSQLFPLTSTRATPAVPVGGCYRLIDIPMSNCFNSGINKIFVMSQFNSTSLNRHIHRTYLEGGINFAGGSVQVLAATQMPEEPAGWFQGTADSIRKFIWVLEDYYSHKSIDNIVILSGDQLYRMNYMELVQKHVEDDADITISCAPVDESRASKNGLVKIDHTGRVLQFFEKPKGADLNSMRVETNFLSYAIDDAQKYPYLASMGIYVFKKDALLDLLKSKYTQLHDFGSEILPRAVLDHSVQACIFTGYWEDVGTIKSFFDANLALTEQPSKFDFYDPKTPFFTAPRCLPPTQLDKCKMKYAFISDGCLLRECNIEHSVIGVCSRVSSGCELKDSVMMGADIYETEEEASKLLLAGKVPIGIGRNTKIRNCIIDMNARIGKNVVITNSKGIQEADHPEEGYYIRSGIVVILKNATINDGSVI
T1 sequence (Q84PF5 1-474): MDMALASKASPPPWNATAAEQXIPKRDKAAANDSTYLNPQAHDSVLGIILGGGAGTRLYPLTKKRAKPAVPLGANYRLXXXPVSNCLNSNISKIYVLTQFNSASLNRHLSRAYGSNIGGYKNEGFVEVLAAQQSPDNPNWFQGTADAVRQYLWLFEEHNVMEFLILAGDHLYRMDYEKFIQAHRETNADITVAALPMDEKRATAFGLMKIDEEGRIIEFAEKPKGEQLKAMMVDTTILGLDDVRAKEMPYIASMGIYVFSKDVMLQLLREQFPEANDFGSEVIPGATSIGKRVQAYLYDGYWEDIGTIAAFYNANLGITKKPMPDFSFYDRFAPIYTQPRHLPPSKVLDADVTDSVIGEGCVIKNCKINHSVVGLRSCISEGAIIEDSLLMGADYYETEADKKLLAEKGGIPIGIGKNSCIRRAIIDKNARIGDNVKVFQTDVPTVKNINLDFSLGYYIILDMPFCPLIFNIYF
Excerpt: The small and large subunit plasmids of maize endosperm AGPase (pMONcBt2 and pMONcSh2, respectively) (Giroux et al., 1996) were expressed in E. coli AC70R1-504 cells (Iglesias et al., 1993) as previously described (Boehlein et al., 2008).
(§1) An endpoint assay was used to determine the rate of the AGPase reaction by coupling the formation of PPi to a decrease in NADH concentration (Boehlein et al., 2008). […] The Michaelis constants (Km) were obtained by varying one substrate in the presence of saturating concentrations of the second substrate. The activation constants were obtained by varying the activator at fixed levels of both substrates. All reactions were performed at 37° C. and mixes were prewarmed before starting the reaction with enzyme. […] The absorbance at 340 nm was monitored after 30 min and the amount of PPi produced was determined from a standard curve using PPi in complete reaction mixtures lacking AGPase. Blank samples contained complete reaction mixtures without enzyme and the change in absorbance between the blank and the reaction was used to calculate the amount of PPi produced. […]
(§2) The apparent Michaelis constant and maximum velocity of each reaction was calculated from a V vs. S plots using nonlinear regression analysis and the following equation, v=VmaxS/(Km+S), where v is the measured velocity, Vmax is the maximum velocity, S is the substrate concentration. […]

[3] = molecular target: T2, maize endosperm AGPase, evolutionary mutant SH2-E (Zea mays, UniProt P55241+Q84PF5); test: Apparent kinetic constants with 3-PGA, 37° C., SH2-E; type: biochemical; conditions: read-out: ATP Km
T2 construct: data of Boehlein et al., 2013
Procedure: as §1, §2
Each mutant, comprising 1, 2, 3 or 4 changes, was grown in a large scale culture, expressed and purified according to standard procedures (Boehlein et al., 2005). […] Next, the activation constant, Ka, was determined for each of the mutant enzymes. […]

[4] = molecular target: T1, maize endosperm AGPase, large subunit variant D161G (numbering of SEQ ID NO: 20); test: Kinetic constants in the absence of 3-PGA, D161G; type: biochemical
Procedure: Reactions were performed for 10 min and terminated by boiling. Blank mixtures contained everything except ATP.
Based on the kinetic results (Table 10) and catalytic properties at 55° C. (Table 10) both D161G and GGR were selected for a more detailed kinetic analysis. […] The GGR mutant was primarily chosen based on its increased catalytic rate at 37° C. and high performance at 55° C. Its high activity in the absence of 3-PGA was also paramount. The first kinetic parameters determined were the Michaelis constants, the catalytic rate (kcat) and the dissociation constant (Kia) for the E-ATP complex, in the absence of 3-PGA. […] For the wt maize enzyme, this activator primarily responds by reducing the Km for both substrates, with little effect on the reaction rate (Boehlein et al., 2013). […] The kinetic mechanism established ATP as the first substrate to bind, thus the activator is no longer necessary for this first step. […] This variant also conditions both heat stability and high activity in the absence of an activator.

[5] = test system: maize endosperm AGPase, wild type (Maize-wt); conditions: absence of 3-PGA, cited from earlier work

T2 sequence (P55241 46-516, change not shown, one chain of several): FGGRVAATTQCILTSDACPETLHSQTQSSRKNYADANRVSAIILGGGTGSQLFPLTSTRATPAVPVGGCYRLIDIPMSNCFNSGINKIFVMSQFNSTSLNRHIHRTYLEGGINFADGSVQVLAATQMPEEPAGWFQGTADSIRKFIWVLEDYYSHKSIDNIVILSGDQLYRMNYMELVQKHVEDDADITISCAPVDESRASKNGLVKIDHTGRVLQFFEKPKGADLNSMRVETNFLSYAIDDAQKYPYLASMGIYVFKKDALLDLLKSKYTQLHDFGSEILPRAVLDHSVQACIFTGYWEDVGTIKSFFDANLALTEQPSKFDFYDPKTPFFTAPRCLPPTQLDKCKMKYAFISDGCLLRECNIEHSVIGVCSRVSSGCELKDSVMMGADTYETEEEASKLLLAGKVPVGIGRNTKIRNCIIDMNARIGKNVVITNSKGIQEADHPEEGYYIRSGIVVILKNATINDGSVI

Nc1ncnc2c1ncn2[C@@H]1O[C@H](COP(=O)(O)OP(=O)(O)OP(=O)(O)O)[C@@H](O)[C@H]1O [ATP]
Km [1]: 110 µM
Km ([2]; read-out: ATP Km, with 3-PGA, 37° C.): 44 µM
Km ([2]; read-out: Km for ATP, in the presence of 3-PGA): 40 µM
Km [3]: 100 µM
decrease of Km for ATP compared to wild-type [4]: ~100 ×
kcat ([4]; ATP varied at fixed G-1-P): 48.8 s⁻¹
Km ([4]; read-out: ATP Km): 43 µM
Km ([5]; apparent Km in the presence of 15 mM G-1-P, read-out: ATP Km (apparent)): 4000 µM
kcat [5]: 35.2 s⁻¹
